Earlier results on 1 compound are cited in US8821904B2, “Topical composition and use thereof for the prophylaxis and the treatment of defects connected to inflammatory dermopathies” (Skinius S.R.L., priority 2010, dated 2014).

For this data set, the system named is seborrhoeic eczema. The settings on record: topically applied, after four weeks of treatment.

Consider `CC(=O)N1CCN(c2ccc(OCC3COC(Cn4ccnc4)(c4ccc(Cl)cc4Cl)O3)cc2)CC1` (stereo not shown) [ketoconazole], for which the “Improvement of seborrhoeic eczema, percentage of the cases” value is 75%.
